# US6488164B2, “Compositions including modafinil for treatment of attention deficit hyperactivity disorder and multiple sclerosis fatigue” (Cephalon, Inc., priority 1999, dated 2002)
# Tests used:
# [1] = test system: MS fatigue; details: cited from earlier work
# [2] = test system: wakefulness; details: cited from earlier work
# [3] = test system: Fos-IR neurons in cingulate cortex, TMN, VTA; test: Fos immunohistochemistry cell counts in rat brain, modafinil given at midnight (Example 1); assay type: in vivo; details: rats
# Description: (§1) Experimental Design: In the following examples, rats were sacrificed two hours following treatment, and the brains were analyzed using immunohistochemistry for Fos. In Examples 1 and 2, rats were instrumented for electroencephalogram (EEG) and electromyogram (EMG) recordings. To avoid the stress of handling during administration of modafinil or vehicle, chronic catheters were placed in the peritoneal cavity for administration of modafinil or vehicle.
# (§2) Animals and Recording Environment: 65, male, Sprague-Dawley rats (Harlan) weighing 270-330 g were housed individually in a pathogen-free barrier facility in a room maintained at 21.5-22.5° C. with lights on at 7 AM and off at 7 PM. Rats had food and water available ad lib. At least 3 days before each experiment, rats were placed into a light-tight, sound-attenuated recording chamber (Biocube) in an isolated room. Light intensity was 100-150 lux at midlevel inside each cage. The Institutional Animal Care and Use Committees of Beth Israel Deaconess Medical Center and Harvard Medical School approved all procedures.
# (§3) Animal Surgery: Under chloral hydrate anesthesia (350 mg/kg ip), the rats of Examples 1 and 2 were surgically implanted with four EEG screws (AP: +3, −4; RL: +2,−2 from bregma) lightly contacting the dura and two EMG wires (Plastics One, Roanoke, Va.) below the nuchal muscles. The leads were connected to a six channel connector (Plastics One) which was affixed to the skull with dental acrylic. A telemetric temperature transmitter (TA10TA-F40, Data Sciences International, St. Paul, Minn.) was placed in the peritoneal cavity of all but 5 rats. To administer drugs without handling the rats, an 80 cm silastic catheter (1 mm I.D., Baxter Scientific Products) was inserted into the peritoneal cavity, subcutaneously tunneled to the scalp, cemented in place with dental acrylic, and protected externally by a spring. This intraperitoneal catheter was filled with heparinized, pyrogen-free saline and flushed weekly and 3 days prior to the experiment. Animals recovered at least 14 days and then acclimated to recording cables for three days prior to the start of physiological recordings.
# (§4) Drug Administration: Modafinil (lot #PA 008; Cephalon, Inc., West Chester, Pa.) was suspended in a solution of 0.25% methylcellulose (pH=7.4, Dow Chemical Inc., Midland, Mich.) in 0.9% pyrogen-free saline. The drug was administered in a volume of 2.0 ml/kg at doses of 150 mg/kg. Control animals received an equal volume of methylcellulose vehicle. Catheters were then flushed with 1 ml 0.9% saline to assure delivery of drug into the peritoneal cavity. A red flashlight was used to aid injections performed in the dark.
# (§5) Histology and Immunohistochemistry: Two hours following drug injections, animals were deeply anesthetized with chloral hydrate (600 mg/kg ip) and transcardially perfused with 100 ml 0.9% saline followed by 500 ml of phosphate buffered 10% formalin, pH 7.0 (Sigma). Brains were removed, postfixed for 4 hours in formalin, and then allowed to equilibrate in 20% sucrose in 0.1 M phosphate buffered saline (PBS), with 0.02% sodium azide (Sigma) at 4° C. Brains were sectioned (1:5 series, 30 μm) on a freezing microtome and stored in PBS-azide at 4° C. One series from each brain was stained for Fos using previously described methods (Elmquist et al., 1996). […]
# [4] = test system: TMN; details: rats, wake-promoting doses; cited from earlier work
# [5] = test system: TMN of the posterior hypothalamus; details: cats, wake-promoting dose; cited from earlier work
# [6] = test system: wakefulness; details: rats, cats, canines, non-human primates; also sleep apnea and narcolepsy models; cited from earlier work
# [7] = test system: Fos-IR neurons in VLPO, TMN, cortex; test: Fos immunohistochemistry cell counts in rat brain, modafinil given at noon (Example 2); assay type: in vivo
# Description: as §1, §2, §3, §4, §5
# [8] = modafinil 150 mg/kg ip at midnight, 2 h after treatment, mean ± standard error, n=6
# [9] = rats on normal LD cycle, 150 mg/kg at noon
# [10] = rats, modafinil 150 mg/kg ip at noon, 2 h after treatment, n=7
structure (smiles),measurement,setting,value
"NC12CC3CC(CC(C3)C1)C2 [Amantadine, amantadine]",Patients with benefit in MS fatigue,"[1]; double blind, randomized study",79%
NC1=NC(=O)C(c2ccccc2)O1 (stereo not drawn) [pemoline],Beneficial effect in MS fatigue (in words),"[1]; same study, MS patients",failed to show a beneficial effect
"NC(=O)C[S+]([O-])C(c1ccccc1)c1ccccc1 (stereo not drawn) [Modafinil, modafinil]",Tolerability in clinical trials,"[2]; 400 mg/day, humans",well tolerated
same,Optimum wakefulness promoting dose,[2]; adult humans,200 mg/day
same,Lower threshold of wake-promoting doses,"[2]; human oral, known in the art",about 100 mg/day
same,Fos-IR neurons in TMN relative to controls,[3]; 150 mg/kg at midnight,four times as many
same,Fos immunoreactivity in the cortex versus controls,"[3]; 150 mg/kg at midnight, more pronounced in cingulate and pyriform cortex",more Fos immunoreactivity in the cortex than the controls
same,"Fos-IR cell count, TMN",[3]; [8],46 ± 4
same,"Fos-IR cell count, VTA",[3]; [8],12 ± 3
same,"Fos-IR cell count, cingulate cortex",[3]; [8],191 ± 38
same,Association of modafinil-induced wakefulness with activation of the TMN (in words),[4],not associated with activation of the TMN
same,Activation of the TMN of the posterior hypothalamus (in words),[5],failed to cause activation of the TMN
same,Wakefulness (in words),[6],promotes wakefulness
same,Number of Fos-IR neurons in the TMN (in words),[7]; [9],markedly increased
same,Number of Fos-IR neurons in the VLPO (in words),[7]; [9],decreases
same,Expression of Fos in frontal and cingulate cortex (in words),"[7]; rats, 150 mg/kg at noon",increased expression of Fos
same,"Fos-IR cell count, TMN",[7]; [10],43 ± 5
same,"Fos-IR cell count, VLPO",[7]; [10],26 ± 3
